Measured values as given in patent US20160378912A1, “STRUCTURE-BASED MODELING AND TARGET-SELECTIVITY PREDICTION” (EPIGENETX, LLC, priority 2013, published 2016).
Where two headings read alike, the source gives them in different places.

How the values were obtained:
HDAC4 = HDAC4 (Homo sapiens, UniProt P56524); settings: cited from earlier work; for pIC50: training set composition; for IC50: training set, read-out: HDACs inhibitory activities IC50
HDAC isoforms = experiment: HDAC inhibition profiled over several HDAC isoforms (experimental); type: biochemical, human; settings: range of pIC50 over the profiled HDAC isoforms
HDAC10 = target: T1, HDAC10 (Homo sapiens, UniProt Q969S8); settings: cited from earlier work; for pIC50exp: experimental value of modeled complex; for pIC50: training set composition; for Exp. pIC50: MTS inhibitors
T1 sequence (Q969S8 1-669): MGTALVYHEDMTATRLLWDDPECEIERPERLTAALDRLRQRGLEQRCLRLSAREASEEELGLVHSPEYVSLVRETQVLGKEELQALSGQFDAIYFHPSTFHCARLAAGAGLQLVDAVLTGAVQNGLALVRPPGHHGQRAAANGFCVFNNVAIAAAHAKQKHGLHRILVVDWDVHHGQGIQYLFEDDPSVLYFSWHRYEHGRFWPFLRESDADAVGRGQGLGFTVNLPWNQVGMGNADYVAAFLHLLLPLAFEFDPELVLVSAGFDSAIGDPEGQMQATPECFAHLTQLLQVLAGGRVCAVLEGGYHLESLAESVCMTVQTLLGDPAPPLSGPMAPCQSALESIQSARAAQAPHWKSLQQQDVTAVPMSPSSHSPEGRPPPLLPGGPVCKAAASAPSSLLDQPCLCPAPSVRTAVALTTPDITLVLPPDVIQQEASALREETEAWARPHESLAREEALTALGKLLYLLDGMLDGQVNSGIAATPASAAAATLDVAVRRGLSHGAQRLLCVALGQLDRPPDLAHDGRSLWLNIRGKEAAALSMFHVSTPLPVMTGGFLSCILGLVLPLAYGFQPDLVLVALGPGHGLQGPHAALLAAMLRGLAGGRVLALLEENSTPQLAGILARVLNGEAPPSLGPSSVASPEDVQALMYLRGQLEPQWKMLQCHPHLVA

HDAH = target: T2, HDAH (Alcaligenes sp., UniProt Q70I53); settings: CTS; cited from earlier work
T2 sequence (Q70I53 1-369): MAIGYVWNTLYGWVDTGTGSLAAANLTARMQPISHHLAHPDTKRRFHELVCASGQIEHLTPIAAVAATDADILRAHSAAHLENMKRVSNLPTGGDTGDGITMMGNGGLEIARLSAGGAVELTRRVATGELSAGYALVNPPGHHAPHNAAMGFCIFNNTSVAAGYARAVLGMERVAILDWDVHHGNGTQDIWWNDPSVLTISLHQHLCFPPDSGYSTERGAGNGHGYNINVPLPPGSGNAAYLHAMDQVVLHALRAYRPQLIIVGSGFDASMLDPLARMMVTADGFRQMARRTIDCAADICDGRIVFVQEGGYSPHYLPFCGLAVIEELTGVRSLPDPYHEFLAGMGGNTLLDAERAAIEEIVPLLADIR

HDAC8 = target: T3, HDAC8 (Homo sapiens, UniProt Q9BY41); settings: cited from earlier work; for pIC50: training set composition
T3 sequence (Q9BY41 1-377): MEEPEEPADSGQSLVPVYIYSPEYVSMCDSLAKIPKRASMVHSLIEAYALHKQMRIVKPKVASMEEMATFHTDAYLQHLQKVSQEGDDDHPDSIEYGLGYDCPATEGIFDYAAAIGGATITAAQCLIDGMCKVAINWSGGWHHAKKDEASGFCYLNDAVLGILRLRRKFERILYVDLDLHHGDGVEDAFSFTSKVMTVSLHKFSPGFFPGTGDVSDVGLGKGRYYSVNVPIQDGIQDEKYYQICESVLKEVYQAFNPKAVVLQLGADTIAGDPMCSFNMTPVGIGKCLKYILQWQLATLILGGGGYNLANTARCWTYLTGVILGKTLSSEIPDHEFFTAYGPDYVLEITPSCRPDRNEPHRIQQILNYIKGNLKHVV

HDAC1 = HDAC1 (Homo sapiens, UniProt Q13547); settings: cited from earlier work; for Exp. pIC50: MTS inhibitors
HDAC1, sequence (Q13547 whole entry): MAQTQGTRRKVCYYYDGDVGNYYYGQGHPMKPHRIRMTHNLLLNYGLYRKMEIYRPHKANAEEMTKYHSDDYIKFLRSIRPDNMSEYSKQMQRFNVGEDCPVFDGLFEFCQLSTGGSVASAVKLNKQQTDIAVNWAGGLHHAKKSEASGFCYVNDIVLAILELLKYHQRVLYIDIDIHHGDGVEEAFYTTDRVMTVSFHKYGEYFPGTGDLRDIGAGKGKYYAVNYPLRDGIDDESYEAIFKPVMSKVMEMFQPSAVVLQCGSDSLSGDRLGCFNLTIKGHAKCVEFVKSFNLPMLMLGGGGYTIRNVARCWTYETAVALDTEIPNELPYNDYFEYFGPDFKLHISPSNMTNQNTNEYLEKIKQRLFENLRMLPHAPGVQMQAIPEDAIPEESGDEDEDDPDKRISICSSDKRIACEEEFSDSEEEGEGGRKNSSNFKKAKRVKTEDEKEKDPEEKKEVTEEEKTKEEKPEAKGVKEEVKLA

HDAC3 = HDAC3 (Homo sapiens, UniProt O15379); settings: cited from earlier work
HDAC3, sequence (O15379 whole entry): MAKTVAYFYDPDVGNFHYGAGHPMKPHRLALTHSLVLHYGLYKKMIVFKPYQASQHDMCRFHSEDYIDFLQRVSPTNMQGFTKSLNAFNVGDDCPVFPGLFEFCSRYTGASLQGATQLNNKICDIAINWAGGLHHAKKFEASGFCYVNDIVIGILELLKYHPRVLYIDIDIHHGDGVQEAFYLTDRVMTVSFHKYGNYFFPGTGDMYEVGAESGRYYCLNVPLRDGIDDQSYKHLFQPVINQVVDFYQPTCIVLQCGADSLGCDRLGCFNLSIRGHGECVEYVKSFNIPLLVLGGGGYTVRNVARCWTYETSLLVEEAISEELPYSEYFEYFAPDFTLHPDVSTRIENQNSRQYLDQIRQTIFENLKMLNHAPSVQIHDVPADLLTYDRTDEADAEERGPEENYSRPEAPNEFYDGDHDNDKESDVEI
HDAC3, sequence (Q9Y618 395-489 partner limits assumed): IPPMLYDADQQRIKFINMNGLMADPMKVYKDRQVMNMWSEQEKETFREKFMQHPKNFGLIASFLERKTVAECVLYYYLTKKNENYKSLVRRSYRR

HDAC6 = target: T4, HDAC6 (Homo sapiens, UniProt Q9UBN7); settings: cited from earlier work; for IC50: HDAC6, MTS, read-out: reported HDACs inhibitory activities IC50; for Exp. pIC50: MTS inhibitors
T4 sequence (Q9UBN7 1-1215): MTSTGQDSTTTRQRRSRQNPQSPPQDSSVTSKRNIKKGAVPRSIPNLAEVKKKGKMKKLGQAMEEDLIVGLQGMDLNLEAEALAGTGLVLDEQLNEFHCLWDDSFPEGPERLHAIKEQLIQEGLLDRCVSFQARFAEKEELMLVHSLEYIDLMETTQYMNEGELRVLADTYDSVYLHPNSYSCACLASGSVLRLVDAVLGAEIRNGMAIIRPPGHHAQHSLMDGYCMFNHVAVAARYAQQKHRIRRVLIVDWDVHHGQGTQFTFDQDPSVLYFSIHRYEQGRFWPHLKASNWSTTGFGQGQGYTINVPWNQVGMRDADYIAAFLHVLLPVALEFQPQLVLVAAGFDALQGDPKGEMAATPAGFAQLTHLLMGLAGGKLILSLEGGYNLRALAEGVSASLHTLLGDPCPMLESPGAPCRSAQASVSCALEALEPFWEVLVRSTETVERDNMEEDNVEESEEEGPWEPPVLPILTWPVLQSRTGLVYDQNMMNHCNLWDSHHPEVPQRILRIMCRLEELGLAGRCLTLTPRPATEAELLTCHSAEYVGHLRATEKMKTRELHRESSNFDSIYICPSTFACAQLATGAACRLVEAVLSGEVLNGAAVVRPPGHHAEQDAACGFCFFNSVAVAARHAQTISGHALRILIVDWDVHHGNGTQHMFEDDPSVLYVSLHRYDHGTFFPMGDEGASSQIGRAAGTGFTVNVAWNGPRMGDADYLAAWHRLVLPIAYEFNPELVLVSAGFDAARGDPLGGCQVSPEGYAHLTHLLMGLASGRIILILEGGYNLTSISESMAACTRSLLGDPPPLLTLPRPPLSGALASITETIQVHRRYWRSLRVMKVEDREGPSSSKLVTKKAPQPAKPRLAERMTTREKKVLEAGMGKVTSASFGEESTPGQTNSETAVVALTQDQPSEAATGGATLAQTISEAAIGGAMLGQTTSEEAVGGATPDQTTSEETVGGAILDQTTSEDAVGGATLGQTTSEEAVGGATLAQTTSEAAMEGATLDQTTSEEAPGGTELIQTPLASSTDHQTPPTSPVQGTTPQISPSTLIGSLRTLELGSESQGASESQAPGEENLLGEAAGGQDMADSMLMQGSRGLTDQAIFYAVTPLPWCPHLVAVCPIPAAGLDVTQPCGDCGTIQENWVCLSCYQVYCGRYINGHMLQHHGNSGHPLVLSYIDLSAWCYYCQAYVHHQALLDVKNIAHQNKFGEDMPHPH

HDAC2 = HDAC2 (Homo sapiens, UniProt Q92769); settings: cited from earlier work; for Exp. pIC50: MTS inhibitors
HDAC2, sequence (Q92769 whole entry): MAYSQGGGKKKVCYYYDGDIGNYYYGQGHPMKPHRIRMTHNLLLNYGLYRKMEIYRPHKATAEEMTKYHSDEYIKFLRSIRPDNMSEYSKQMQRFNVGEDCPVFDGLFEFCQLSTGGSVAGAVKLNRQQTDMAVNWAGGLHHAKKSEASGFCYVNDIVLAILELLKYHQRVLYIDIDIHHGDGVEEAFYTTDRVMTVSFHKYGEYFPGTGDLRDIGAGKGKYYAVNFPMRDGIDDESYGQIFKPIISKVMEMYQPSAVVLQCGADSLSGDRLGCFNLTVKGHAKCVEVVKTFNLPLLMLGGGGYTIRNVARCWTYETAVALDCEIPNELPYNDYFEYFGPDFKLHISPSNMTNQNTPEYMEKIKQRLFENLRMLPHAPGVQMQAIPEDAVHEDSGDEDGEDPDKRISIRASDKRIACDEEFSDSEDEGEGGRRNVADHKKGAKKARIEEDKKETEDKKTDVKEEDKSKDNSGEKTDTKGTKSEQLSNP

HDAC7 = target: T5, HDAC7 (Homo sapiens, UniProt Q8WUI4); settings: cited from earlier work
T5 sequence (Q8WUI4 1-952): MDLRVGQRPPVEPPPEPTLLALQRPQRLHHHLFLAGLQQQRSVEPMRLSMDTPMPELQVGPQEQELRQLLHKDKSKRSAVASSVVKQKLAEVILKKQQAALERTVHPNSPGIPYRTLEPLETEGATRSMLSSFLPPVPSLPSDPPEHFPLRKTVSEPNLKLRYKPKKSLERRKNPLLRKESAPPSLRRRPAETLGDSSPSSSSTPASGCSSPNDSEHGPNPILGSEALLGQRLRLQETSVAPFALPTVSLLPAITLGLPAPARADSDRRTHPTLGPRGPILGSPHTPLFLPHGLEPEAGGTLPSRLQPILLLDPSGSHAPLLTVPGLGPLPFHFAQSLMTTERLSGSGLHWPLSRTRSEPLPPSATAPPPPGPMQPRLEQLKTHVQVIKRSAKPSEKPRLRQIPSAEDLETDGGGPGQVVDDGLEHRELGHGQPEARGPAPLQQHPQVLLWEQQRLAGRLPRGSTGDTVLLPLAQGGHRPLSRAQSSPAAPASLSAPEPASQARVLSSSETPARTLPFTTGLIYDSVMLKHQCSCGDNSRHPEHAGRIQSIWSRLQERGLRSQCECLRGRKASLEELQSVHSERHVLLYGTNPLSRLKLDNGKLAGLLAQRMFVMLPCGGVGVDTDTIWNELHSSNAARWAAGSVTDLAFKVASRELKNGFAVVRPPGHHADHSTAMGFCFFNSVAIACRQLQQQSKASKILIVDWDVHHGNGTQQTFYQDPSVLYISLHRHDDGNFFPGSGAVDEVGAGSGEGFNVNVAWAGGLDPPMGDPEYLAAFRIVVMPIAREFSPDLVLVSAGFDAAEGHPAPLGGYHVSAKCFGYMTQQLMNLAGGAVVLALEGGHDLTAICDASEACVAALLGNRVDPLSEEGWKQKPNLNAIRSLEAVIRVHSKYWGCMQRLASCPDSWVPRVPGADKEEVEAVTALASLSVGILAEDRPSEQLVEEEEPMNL

[1] = training set, read-out: HDACs inhibitory activities IC50
[2] = co-crystallized ligand, read-out: IC50
[3] = MTS, read-out: reported HDACs inhibitory activities IC50
[4] = HDAC6, listed with HDAC6-1 complexes
[5] = HDAC6, listed with HDAC6-2 complexes

HDAC4, sequence (P56524 whole entry, canonical isoform): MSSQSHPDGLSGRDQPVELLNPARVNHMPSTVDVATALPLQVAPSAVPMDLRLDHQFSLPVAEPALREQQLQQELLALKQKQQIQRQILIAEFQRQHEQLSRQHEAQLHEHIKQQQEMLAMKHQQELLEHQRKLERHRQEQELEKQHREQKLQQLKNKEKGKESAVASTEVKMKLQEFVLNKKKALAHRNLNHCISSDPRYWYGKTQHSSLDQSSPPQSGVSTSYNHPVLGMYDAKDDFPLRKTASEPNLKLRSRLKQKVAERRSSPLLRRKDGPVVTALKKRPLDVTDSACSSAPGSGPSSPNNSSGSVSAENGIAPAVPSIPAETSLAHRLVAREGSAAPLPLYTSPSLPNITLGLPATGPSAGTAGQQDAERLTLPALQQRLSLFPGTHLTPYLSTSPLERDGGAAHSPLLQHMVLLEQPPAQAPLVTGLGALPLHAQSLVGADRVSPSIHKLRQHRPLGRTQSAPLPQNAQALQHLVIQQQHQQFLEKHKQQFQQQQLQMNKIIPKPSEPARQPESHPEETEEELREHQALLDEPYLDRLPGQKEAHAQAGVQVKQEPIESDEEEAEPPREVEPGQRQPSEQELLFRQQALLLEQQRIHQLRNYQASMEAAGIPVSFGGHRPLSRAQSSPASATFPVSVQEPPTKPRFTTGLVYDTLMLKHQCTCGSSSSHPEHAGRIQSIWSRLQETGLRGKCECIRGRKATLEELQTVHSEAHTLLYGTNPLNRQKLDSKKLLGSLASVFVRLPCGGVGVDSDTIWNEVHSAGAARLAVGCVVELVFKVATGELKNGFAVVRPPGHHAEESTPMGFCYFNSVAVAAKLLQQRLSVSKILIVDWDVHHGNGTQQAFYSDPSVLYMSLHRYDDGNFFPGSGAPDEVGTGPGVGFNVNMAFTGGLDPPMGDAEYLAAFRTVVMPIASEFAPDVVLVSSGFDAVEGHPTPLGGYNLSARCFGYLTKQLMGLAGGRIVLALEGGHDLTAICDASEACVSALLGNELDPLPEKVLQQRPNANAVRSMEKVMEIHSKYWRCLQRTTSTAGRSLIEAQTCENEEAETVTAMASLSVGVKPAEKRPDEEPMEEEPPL

In the case of Oxamflatin, the pIC50 (HDAC4) is given as 7.52, the IC50 (HDAC4) is given as 0.03 µM and the “Bioactivity range (ΔpIC50) DpIC50” value (HDAC isoforms) is given as 2.34. For the same compound, the pIC50exp (HDAC10) was 7.301, the pIC50 (HDAC10) was 7.30 and the IC50 (HDAC10; [1]) was 0.05 µM.

For `O=C(CCCCCCC(=O)C(F)(F)F)Nc1ccccc1` [CF3, 9,9,9-trifluoro-8-oxo-n-phenylnonanamide], the “Experimental pIC50” value (HDAH) is listed as 4.95 and the IC50 (HDAH) is listed as 11.2 µM.

For `CN(c1ccc(C(=O)NO)cc1)S(=O)(=O)c1ccc(-c2ccccn2)s1` [NHB, N-hydroxy-4-{methyl[(5-pyridin-2-ylthiophen-2-yl)sulfonyl]amino}benzamide], the IC50 (HDAC8; [2]) is given as 0.175 µM and the pIC50 (HDAC8) is given as 6.76.

For `CCCC(CCC)C(=O)O` [VALP, valproic acid], the “Bioactivity range (ΔpIC50) DpIC50” value (HDAC isoforms) is listed as 0.95, the pIC50exp (HDAC10) is listed as 3 and the pIC50 (HDAC10) is listed as 3.00. The IC50 (HDAC10; [1]) was 1000 µM, the pIC50exp (HDAC1; experimental value of modeled complex) was 3 and the pIC50 (HDAC1; training set composition) was 3.00. For the same compound, the IC50 (HDAC1; [1]) was 1000 µM.

For SCRIPTAID, the “Bioactivity range (ΔpIC50) DpIC50” value (HDAC isoforms) was 2.76.

With MS-275 the “Bioactivity range (ΔpIC50) DpIC50” value (HDAC isoforms) was 2.63.

In the case of `C[C@@H](NC(=O)c1ccc(C(=O)C(F)(F)F)s1)c1ccccc1` [MCL08-3d], the “Exp. pIC50” value (HDAC1) is given as 6.50.

For `CC(C)(C)OC(=O)Nc1ccccc1-c1ccc(NC(=O)CCCCCCC(=O)NO)cc1` [CMC-7f], the “Exp. pIC50” value (HDAC3; MTS inhibitors) is listed as 7.75, the IC50 (HDAC3; [3]) is listed as 0.018 µM and the “Exp. pIC50” value (HDAC8; MTS inhibitors) is listed as 5.76. The IC50 (HDAC8; [3]) was 1.72 µM, the “Exp. pIC50” value (HDAC10) was 7.08 and the IC50 (HDAC10; [3]) was 0.083 µM. For the same compound, the “Exp. pIC50” value (HDAC1) was 7.24, the IC50 (HDAC1; [3]) was 0.057 µM and the IC50 (HDAC6) was 0.011 µM. The “Exp. pIC50” value (HDAC6; [4]) was 7.96, the “Exp. pIC50” value (HDAC6; [5]) was 7.96 and the “Exp. pIC50” value (HDAC2) was 7.13. For the same compound, the IC50 (HDAC2; [3]) was 0.074 µM.

For `N[C@H](Cc1ccc(Cl)cc1Cl)C(=O)N1CCN(C(=O)c2ccc(F)cc2F)CC1` [0DI], the IC50 (HDAC8; CTS, read-out: IC50) is given as 0.2 µM and the “Experimental pIC50” value (HDAC8; CTS) is given as 6.70.

In the case of `CNC(=O)/C(CCCCCCC(=O)Nc1cccc(-c2ccc(Cl)nc2)c1)=N\O` [JMC-23], the IC50 (HDAC8; [3]) is given as 100 µM.

In the case of “4-dimethylamino-n-(6- hydroxycarbamoyethyl) benzamide-n-hydroxy-7-(4- dimethylaminobenzoyl) aminoheptanamide [MS-344]”, the IC50 (HDAC8; [2]) is given as 0.249 µM and the pIC50 (HDAC8) is given as 6.60.

For `O=C(CCC1CCCC1)NO` [3YP, 3-cyclopentyl-n-hydroxypropanamide], the “Experimental pIC50” value (HDAH) is given as 6.54 and the IC50 (HDAH) is given as 0.29 µM.

For `CC(C)(C)OC(=O)Nc1cccc(-c2csc(NC(=O)CCCCCCC(=O)NO)n2)c1` [CMC-25b], the “Exp. pIC50” value (HDAC10) is listed as 8.70, the IC50 (HDAC10; [3]) is listed as 0.002 µM and the IC50 (HDAC6) is listed as 0.0002 µM. The “Exp. pIC50” value (HDAC6; [4]) was 9.70, the “Exp. pIC50” value (HDAC6; [5]) was 9.70 and the “Exp. pIC50” value (HDAC2) was 7.13.

For `Cn1cc(C(=O)Cc2ccccc2)cc1/C=C/C(=O)NO` [APHA8, (2E)-N-hydroxy-3-[1-methyl-4-(phenylacetyl)-1H-pyrrol-2-yl]prop-2-enamide], the pIC50 (HDAC4) is listed as 5.51, the IC50 (HDAC4) is listed as 3.1 µM and the “Bioactivity range (ΔpIC50) DpIC50” value (HDAC isoforms) is listed as 1.87. The pIC50 (HDAC7; training set composition) was 5.51 and the IC50 (HDAC7; [1]) was 3.1 µM.
